Read-outs that look alike come from different tables or passages of the source.

As usually defined, the EC50 is the concentration that produces a half-maximal response.

One experiment concerns the target T1, human WT STING (Homo sapiens, UniProt Q86WV6, H232R).
T1 construct: truncated human WT STING or AQ STING (amino acid residues 140-343); 8xHis (N, cleaved yes); SUMO (N, cleaved yes); made in house; host or cells: E. coli Rosetta-gami B (DE3)
As to the kind of experiment: Differential Scanning Fluorimetry with WT STING. The note with it: thermal shift vs STING apoprotein; 150 μM CDN; truncated WT STING (residues 140-343). Type of experiment: binding.

Experiment [1] concerns the target T2, AQ human STING (G230A-R293Q) (Homo sapiens, UniProt Q86WV6, G230A/H232R/R293Q).
T2 construct: truncated human WT STING or AQ STING (amino acid residues 140-343); 8xHis (N, cleaved yes); SUMO (N, cleaved yes); made in house; host or cells: E. coli Rosetta-gami B (DE3)
As to the kind of experiment: Differential Scanning Fluorimetry with AQ STING. Particulars: thermal shift vs STING apoprotein; 150 μM CDN; truncated AQ STING (residues 140-343). Type of experiment: binding.

The target of experiment [2] is T3, human wild type STING (WT STING) (Homo sapiens, UniProt Q86WV6, H232R). As to the kind of experiment: Digitonin assay using 293T wtSTING-FL reporter cells. The format is cell-based. Particulars: 293T wtSTING-FL cells; compounds in Digitonin buffer 30 minutes, then 5 hours in medium; ISRE firefly luciferase.
The target in experiment [3] is T3, human wild type STING (WT STING). As to the kind of experiment: 293T WT STING standard reporter assay. The format is cell-based. Particulars: standard reporter assay without digitonin, 7 hours, ISRE firefly luciferase.
Experiment [4] relates to peripheral blood mononuclear cell (PBMC). As to the kind of experiment: Peripheral blood mononuclear cell assay. Particulars: average of one to four donors.
Description: Selected compounds were tested in an in vitro peripheral blood mononuclear cell (PBMC) assay. […] Serially diluted tested compounds were added to wells in 50 μl of cultivation medium and cells were incubated with the compounds for 1h at 37° C. with 5% CO2. Plates with cells were then spun 500 g for 5 minutes and the medium was removed. Cells were washed twice with the cell culture medium by the use of centrifugation and gently resuspended in 100 μl medium without compounds. After 15 hour incubation at 37° C. with 5% CO2, the cell culture medium was collected and the levels of interferon-alpha (INF-α), interferon-gamma (INF-γ) and tumor necrosis factor-alpha (TNF-α) were determined with ProcartaPlex Assays (ThermoFisher, Waltham, USA) and MAGPIX System (Merck KGaA, Darmstadt, Germany). […] Values reported are an average of runs from one to four donors.
Where [5] appears, read: 293T wtSTING-FL cells, read-out: 293T WT STING EC50.
[6] abbreviates: 293T WT STING EC50, 293T wtSTING-FL cells.
The mark [7] stands for this setting: PBMC, read-out: PBMC EC50 IFN-α, compounds 1h, washed, 15 hour incubation, interferon-alpha level in medium.
Where [8] appears, read: read-out: PBMC EC50 TNF-α, compounds 1h, washed, 15 hour incubation, tumor necrosis factor-alpha level in medium.
The mark [9] stands for this setting: read-out: PBMC EC50 IFN-α, compounds 1h, washed, 15 hour incubation, interferon-alpha level in medium.
Where [10] appears, read: read-out: PBMC EC50 IFN-γ, compounds 1h, washed, 15 hour incubation, interferon-gamma level in medium.
Where [11] appears, read: PBMC, read-out: PBMC EC50 IFN-γ, compounds 1h, washed, 15 hour incubation, interferon-gamma level in medium.
Where [12] appears, read: PBMC, read-out: PBMC EC50 TNF-α, compounds 1h, washed, 15 hour incubation, tumor necrosis factor-alpha level in medium.

T2 sequence (Q86WV6 140-343 G230A/H232R/R293Q): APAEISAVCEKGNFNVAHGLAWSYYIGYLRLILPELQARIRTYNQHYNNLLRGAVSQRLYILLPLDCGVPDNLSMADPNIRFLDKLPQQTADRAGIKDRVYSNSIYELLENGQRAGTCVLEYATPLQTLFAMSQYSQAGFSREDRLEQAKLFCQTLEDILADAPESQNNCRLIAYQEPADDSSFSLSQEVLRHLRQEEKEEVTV
T3 sequence (Q86WV6 whole entry H232R): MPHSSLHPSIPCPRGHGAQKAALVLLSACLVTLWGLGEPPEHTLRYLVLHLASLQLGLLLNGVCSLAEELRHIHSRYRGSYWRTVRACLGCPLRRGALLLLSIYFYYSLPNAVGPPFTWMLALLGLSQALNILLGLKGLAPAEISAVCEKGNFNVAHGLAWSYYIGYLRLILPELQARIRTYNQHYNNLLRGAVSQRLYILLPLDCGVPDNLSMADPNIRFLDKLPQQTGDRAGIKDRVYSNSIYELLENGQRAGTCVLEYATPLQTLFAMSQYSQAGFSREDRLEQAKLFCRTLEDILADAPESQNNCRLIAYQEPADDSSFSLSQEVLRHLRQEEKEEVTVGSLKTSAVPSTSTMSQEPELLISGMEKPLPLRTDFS
T1 sequence (Q86WV6 140-343 H232R): as the sequence (Q86WV6 140-343 G230A/H232R/R293Q) above, with A91G, Q154R counted along it

For `Nc1ncnc2c1ncn2[C@@H]1O[C@@H]2COP(=O)(S)O[C@@H]3[C@H](F)[C@@H](COP(=O)(O)CO[C@H]2[C@H]1F)O[C@H]3n1cnc2c(=O)[nH]cnc21` (single isomer, unassigned) [Compound 13a], the “DSF ΔTm WT STING” value at human WT STING was determined as 18.3 °C. Further, the “DSF ΔTm AQ STING” value in experiment [1] stood at 21.8 °C. Further, the EC50 in experiment [2] turned out to be 9 nM; in experiment [3] (setting [5]), 1300 nM.
With `Nc1nc2c(ncn2[C@@H]2O[C@@H]3COP(=O)(S)CO[C@H]4[C@@H](F)[C@H](n5cnc6c(N)ncnc65)O[C@@H]4COP(=O)(O)O[C@@H]2[C@@H]3F)c(=O)[nH]1` (single isomer, unassigned) [Compound 15a], at human WT STING, the “DSF ΔTm WT STING” value was determined as 13.8 °C. The “DSF ΔTm AQ STING” value in experiment [1] is 19.7 °C. The EC50 in experiment [2] was determined as 20 nM; in experiment [3] (setting [5]) it was 2300 nM.
For `Nc1nc2c(ncn2[C@@H]2O[C@@H]3COP(=O)(S)CO[C@H]4[C@@H](F)[C@H](n5cnc6c(N)ncnc65)O[C@@H]4COP(=O)(O)O[C@@H]2[C@@H]3F)c(=O)[nH]1` (single isomer, unassigned) [Compound 15b], the “DSF ΔTm WT STING” value on human WT STING is 19.4 °C. The “DSF ΔTm AQ STING” value in experiment [1] is 27.0 °C. The concentration giving a half-maximal response (EC50) in experiment [3] (setting [5]) was 4700 nM.
`Nc1nc2c(ncn2[C@@H]2O[C@@H]3COP(=O)(S)CO[C@H]4[C@@H](F)[C@H](n5cnc6c(N)ncnc65)O[C@@H]4COP(=O)(S)O[C@@H]2[C@@H]3F)c(=O)[nH]1` (single isomer, unassigned) [Compound 17a]: the “DSF ΔTm WT STING” value on human WT STING was determined as 8.7 °C. For the same molecule, the “DSF ΔTm AQ STING” value in experiment [1] was determined as 14.3 °C. The EC50 in experiment [2] came to 540 nM; in experiment [3] (setting [5]) it was 10200 nM.
For `Nc1ncnc2c1ncn2[C@@H]1O[C@@H]2COP(=O)(S)O[C@@H]3[C@H](F)[C@@H](COP(=O)(S)CO[C@H]2[C@H]1F)O[C@H]3n1cnc2c(N)ncnc21` (single isomer, unassigned) [Compound 30a], the EC50 in experiment [2] was determined as 11200 nM.
On the same count and under the same terms, the figure for `Nc1ncnc2c1ncn2[C@@H]1O[C@@H]2COP(=O)(S)O[C@@H]3[C@H](F)[C@@H](COP(=O)(S)CO[C@H]2[C@H]1F)O[C@H]3n1cnc2c(N)ncnc21` (single isomer, unassigned) [Compound 30b] is 400 nM; for `Nc1ncnc2c1ncn2[C@@H]1O[C@@H]2COP(=O)(S)O[C@@H]3[C@H](F)[C@@H](COP(=O)(S)CO[C@H]2[C@H]1F)O[C@H]3n1cnc2c(N)ncnc21` (single isomer, unassigned) [Compound 30c] it is 600 nM.
Take `CCCCCCCCCCCC(=O)OCSP1(=O)CO[C@H]2[C@@H](F)[C@H](n3cnc4c(N)ncnc43)O[C@@H]2COP(=O)(SCOC(=O)CCCCCCCCCCC)O[C@@H]2[C@H](F)[C@@H](CO1)O[C@H]2n1cnc2c(=O)[nH]c(N)nc21` (single isomer, unassigned) [Compound 78c]: the EC50 in experiment [3] (setting [6]) was 60 nM; in experiment [4] (setting [7]) it was 3400 nM; in experiment [4] (setting [8]), 3000 nM.
In the case of `CCCCCCCCCCCC(=O)OCSP1(=O)CO[C@H]2[C@@H](F)[C@H](n3cnc4c(N)ncnc43)O[C@@H]2COP(=O)(SCOC(=O)CCCCCCCCCCC)O[C@@H]2[C@H](F)[C@@H](CO1)O[C@H]2n1cnc2c(=O)[nH]c(N)nc21` (single isomer, unassigned) [Compound 78d], the EC50 in experiment [3] (setting [6]) is 40 nM; in experiment [4] (setting [9]), 3400 nM; in experiment [4] (setting [8]), 800 nM.
As for `CCCCCCCCCCCC(=O)OCOP1(=O)CO[C@H]2[C@@H](F)[C@H](n3cnc4c(N)ncnc43)O[C@@H]2COP(=O)(OCOC(=O)CCCCCCCCCCC)O[C@@H]2[C@H](F)[C@@H](CO1)O[C@H]2n1cnc2c(=O)[nH]cnc21` (single isomer, unassigned) [Compound 79a], the EC50 in experiment [3] (setting [5]) was found to be 3 nM; in experiment [4] (setting [7]), 200 nM; in experiment [4] (setting [10]), 100 nM.
Consider `CCCCCCCCCCCC(=O)OCOP1(=O)CO[C@H]2[C@@H](F)[C@H](n3cnc4c(N)ncnc43)O[C@@H]2COP(=O)(OCOC(=O)CCCCCCCCCCC)O[C@@H]2[C@H](F)[C@@H](CO1)O[C@H]2n1cnc2c(=O)[nH]cnc21` (single isomer, unassigned) [Compound 79b], for which the EC50 in experiment [3] (setting [5]) turned out to be 20 nM; in experiment [4] (setting [9]), 200 nM; in experiment [4] (setting [10]), 10 nM; in experiment [4] (setting [8]), 200 nM.
Regarding `CCCCCCCCCCCC(=O)OCOP1(=O)CO[C@H]2[C@@H](F)[C@H](n3cnc4c(N)ncnc43)O[C@@H]2COP(=O)(OCOC(=O)CCCCCCCCCCC)O[C@@H]2[C@H](F)[C@@H](CO1)O[C@H]2n1cnc2c(=O)[nH]cnc21` (single isomer, unassigned) [Compound 79c], the EC50 in experiment [3] (setting [5]) is 3 nM; in experiment [4] (setting [9]), 100 nM; in experiment [4] (setting [10]), 50 nM; in experiment [4] (setting [8]), 90 nM.
Regarding `CC(C)OC(=O)OCOP1(=O)CO[C@H]2[C@@H](F)[C@H](n3cnc4c(N)ncnc43)O[C@@H]2COP(=O)(OCOC(=O)OC(C)C)O[C@@H]2[C@H](F)[C@@H](CO1)O[C@H]2n1cnc2c(N)ncnc21` (single isomer, unassigned) [Compound 80a], the EC50 is 4200 nM in experiment [3] (setting [5]), more than 5000 nM in experiment [4] (setting [7]), more than 5000 nM in experiment [4] (setting [11]) and more than 5000 nM in experiment [4] (setting [12]).
For `CC(C)OC(=O)OCOP1(=O)CO[C@H]2[C@@H](F)[C@H](n3cnc4c(N)ncnc43)O[C@@H]2COP(=O)(OCOC(=O)OC(C)C)O[C@@H]2[C@H](F)[C@@H](CO1)O[C@H]2n1cnc2c(N)ncnc21` (single isomer, unassigned) [Compound 80c], the 50% effective concentration (EC50) in experiment [3] (setting [5]) was 1100 nM; in experiment [4] (setting [9]) it was more than 5000 nM; in experiment [4] (setting [10]), more than 5000 nM; in experiment [4] (setting [8]), more than 5000 nM.
As to `CC(C)(C)C(=O)OCOP1(=O)CO[C@H]2[C@@H](F)[C@H](n3cnc4c(N)ncnc43)O[C@@H]2COP(=O)(OCOC(=O)C(C)(C)C)O[C@@H]2[C@H](F)[C@@H](CO1)O[C@H]2n1cnc2c(N)ncnc21` (single isomer, unassigned) [Compound 81a], the EC50 was 50 nM in experiment [3] (setting [5]), 1400 nM in experiment [4] (setting [7]), 1700 nM in experiment [4] (setting [11]) and 1600 nM in experiment [4] (setting [12]).
As for `CC(C)(C)C(=O)OCOP1(=O)CO[C@H]2[C@@H](F)[C@H](n3cnc4c(N)ncnc43)O[C@@H]2COP(=O)(OCOC(=O)C(C)(C)C)O[C@@H]2[C@H](F)[C@@H](CO1)O[C@H]2n1cnc2c(N)ncnc21` (single isomer, unassigned) [Compound 81b], the half-maximal effective concentration (EC50) in experiment [3] (setting [5]) was 50 nM; in experiment [4] (setting [9]), 1000 nM; in experiment [4] (setting [10]) it was 1400 nM; in experiment [4] (setting [8]) it was 1300 nM.
As to `Nc1nc2c(ncn2[C@@H]2O[C@@H]3COP(=O)(O)O[C@@H]4[C@H](O)[C@@H](COP(=O)(O)O[C@@H]2[C@@H]3O)O[C@H]4n2cnc3c(N)ncnc32)c(=O)[nH]1` [2′2′-cGAMP, reference compound], the “DSF ΔTm AQ STING” value in experiment [1] came out at 19.4 °C. Further, the results for the EC50 in experiment [2] and in experiment [3] (setting [5]) were 30 nM and 10200 nM, respectively.
On to `Nc1ncnc2c1ncn2[C@@H]1O[C@@H]2COP(=O)(O)O[C@@H]3[C@H](F)[C@@H](COP(=O)(O)CO[C@H]2[C@H]1F)O[C@H]3n1cnc2c(=O)[nH]cnc21` [Compound 22], for which the EC50 turned out to be 8100 nM in experiment [3] (setting [5]), 160000 nM in experiment [4] (setting [7]), 125000 nM in experiment [4] (setting [11]) and 90000 nM in experiment [4] (setting [12]).
Turning to `Nc1ncnc2c1ncn2[C@@H]1O[C@@H]2COP(=O)(O)O[C@@H]3[C@H](F)[C@@H](COP(=O)(O)CO[C@H]2[C@H]1F)O[C@H]3n1cnc2c(N)ncnc21` [Compound 28, (1S,6R,8R,9R,10R,16R,18R,19R)-8,18-bis(6-amino-9H-purin-9-yl)-9,19-difluoro-3,13-dihydroxy-2,4,7,11,14,17-hexaoxa-3λ^5,13λ^5-diphosphatricyclo[14.2.1.0^6,^10]nonadecane-3,13-dione], the “DSF ΔTm WT STING” value on human WT STING is 9.3 °C. Moreover, the “DSF ΔTm AQ STING” value in experiment [1] amounted to 13.3 °C. In experiment [3] (setting [5]), the EC50 was found to be 6200 nM.
For the molecule `CC(C)OC(=O)OCOP1(=O)CO[C@H]2[C@@H](F)[C@H](n3cnc4c(N)ncnc43)O[C@@H]2COP(=O)(OCOC(=O)OC(C)C)O[C@@H]2[C@H](F)[C@@H](CO1)O[C@H]2n1cnc2c(N)ncnc21` (stereo partly drawn) [Compound 80b, {[(1S,6R,8R,9R,10R,16R,18R,19R)-8,18-bis(6-amino-9H-purin-9-yl)-9,19-difluoro-3,13-dioxo-13-({[(propan-2-yloxy)carbonyl]oxy}methoxy)-2,4,7,11,14,17-hexaoxa-3λ^5,13λ^5-diphosphatricyclo[14.2.1.0^6,10]nonadecan-3-yl]oxy}methyl propan-2-yl carbonate], the EC50 was 900 nM in experiment [3] (setting [5]), 1300 nM in experiment [4] (setting [7]), 1600 nM in experiment [4] (setting [11]) and 1500 nM in experiment [4] (setting [12]).

These data come from patent US12318403B2, “2′3′-cyclic dinucleotides and prodrugs thereof” (INSTITUTE OF ORGANIC CHEMISTRY AND BIOCHEMISTRY ASCR, V.V.I., priority 2019, dated 2025).
